In patent publication US11718592B2, “Oxadiazole derivative” (Sumitomo Pharma Co., Ltd., priority 2020, dated 2023):
Read-outs that look alike come from different tables or passages of the source. Marks after values point to notes of the source that are not given here.

Legend:
[1] = test system: ddY male mice; experiment: Test with model produced by subcutaneous injection of pentetrazol (minimum convulsion model, scPTZ); format: in vivo; details: 25 mg/kg oral administration
Description: In order to evaluate an antiepileptic drug, in general, a model produced by subcutaneous injection of pentetrazol (minimum convulsion model, scPTZ) is used, which has high clinical predictability. […] In this test, an animal model which expresses generalized absence seizure or myoclonic seizure was used. Test compounds were orally administered to Sic: ddY male mice (purchased from Japan SLC, Inc., 5 mice in each group, body weight 20-30 g). After an hour, pentetrazol (85 mg/kg) was subcutaneously administered. […] To control mice, 0.5% methylcellulose solution was administered, and the same test was done. The results are represented as the number of mice with no convulsion, per 5 mice. The present test was deemed to succeed when 4 mice among 5 mice in the control group developed convulsions.

[2] = test system: BALB/c-Scn1a<+/−> mice; experiment: Anticonvulsant effect in mouse model of Dravet syndrome with febrile seizures; format: in vivo; details: oral; for Difference of the threshold temperature of convulsion from that of the control group: at the dose for anticonvulsive effect, hyperthermia 50 minutes after dosing; for Dose for anticonvulsive effect: dose needed to raise the threshold body temperature for inducing febrile seizures significantly compared with the control group
Text: This is a test for evaluating the anticonvulsant effect for febrile seizures of the test compounds in a mouse model of Dravet syndrome. In this test, BALB/c-Scn1a<+/−> mice were used (catalog number: RBRC06422; they are available from RIKEN BioResource Research Center via the National BioResource Project). The present mouse model having a mutation in a responsible gene for Dravet syndrome, Scn1A, presents with symptoms similar to febrile seizures caused by hyperthermia which is a symptom in a patient suffering from Dravet syndrome, and can be used as an animal model of spontaneous Dravet syndrome (for reference: the Japan Epilepsy Research Foundation, Annual Report 2015: 26: 69-76). To male mice model of Dravet syndrome (one group: 5-8 mice, body weight: 20-30 g) were orally administered the test compound. 50 minutes later, the mice were put in a chamber warmed with hot bath to evoke hyperthermia, and observed about the development of febrile seizures. Immediately after febrile seizure was developed, the rectal temperature was measured and used as the threshold body temperature for inducing febrile seizures.

[3] = test system: GABA(A) receptors; experiment: Evaluation of the potentiating effect on GABA(A) receptors (electrophysiology, GABA(A) receptor expressing cells); format: cell-based; details: for Inhibition rate to the increased electric current by adding flumazenil: 2 μM GABA and test compound with 10 μM flumazenil; for The potentiating effect on GABA(A) receptors EC20: concentration giving 20% increase of the current generated by 2 μM GABA
Description: Using GABA(A) receptor expressing cells prepared according to Guideline for Generation of Stable Cell Lines (website of Lonza Japan; Non-patent Literature 4), the present test is done for evaluating the potentiating effect of a drug on GABA(A) receptors based on the electric current raised by GABA. The GABA(A) receptor expressing cells were used in electrophysiological study, wherein the electric current was measured when 2 μM GABA solution and then a mixture of 2 μM GABA and the test compound were added to the cells. […] In addition, the electric current generated by a mixture of 2 μM GABA solution and the test compound with 10 μM flumazenil was measured, and the inhibition rate for the electric current by adding flumazenil was calculated compared to the electric current obtained in the absence of flumazenil.

[4] = test system: Slc: ddy male mice; details: mouse, in vivo, po, 1 h
Description: The present test is a test for evaluating whether the test compound may disturb coordinated movement or not. Rotarod is an apparatus equipped with a rotating columnar bar whose diameter is 4 cm, in which a mouse is made to walk on the rotating bar, and the coordinated movement is evaluated from the result of walking (can walk or cannot walk). Slc: ddy male mice (purchased from Japan SLC, Inc., body weight: 20-30 g) were trained 3 hours before the test starts so that they could walk on a rotarod apparatus rotating with a speed of 12 rotations per minute for 5 minutes without falling. Only the mice which can walk in the training are used in the test. The test compound was orally administered to a group consisting of 5 mice. […] To control mice, 0.5% methylcellulose solution was administered as test compound, and the same test was also done. The coordinated movement was evaluated with the average of the five mice's walking time (second).

[5] = test system: male Wister strain rats; experiment: Antidepressant effect in rat forced swimming test; format: in vivo; details: for antidepressant effect / immobility time (in words): oral; for average rate of deceasing the immobility time per that of the control group: swim 5 minutes an hour later
Text: The present test can evaluate antidepressant effect of a drug. When a rat is thrown into a water bath from which the rat cannot escape to be made to swim, the rat takes on escape behavior in the beginning and then becomes immobile. Next day, when the rat is thrown into a water bath again, the immobility appears earlier than that of the first trial. The method can evaluate the antidepressant effect of a test compound by using the duration of the immobility time as an indicator of depressive behavior. A day before the test, male Wister strain rats (purchased from Charles River Laboratories Japan, body weight: 260-300 g) were made to swim in a water bath for 15 minutes. On the test day, the test compound was orally administered to the rats (10-12 rats in one group). An hour later, the rats were made to swim again for 5 minutes and each immobility time was measured. In the control group, 0.5% methylcellulose solution as the test compound was administered to the rats which were subjected to the same behavior test. The antidepressant effect was indicated by the average rate of deceasing the immobility time per that of the control group.

Row | SMILES | Difference of the threshold temperature of convulsion from that of the control group [2] [°C] | Dose for anticonvulsive effect [2] [mg/kg] | Inhibition rate to the increased electric current by adding flumazenil [3] [%] | The potentiating effect on GABA(A) receptors EC20 [3] [µM] | average of the five mice's walking time ([4]; 50 mg/kg) [s] | average of the five mice's walking time ([4]; 100 mg/kg) [s] | further results
1 | CN1C(=O)CC[C@H]1c1nc(-c2ccc(F)cc2)no1 (single isomer, unassigned) [Example 31] | 0.3 | 12.5 | <0 | 15 | 53.2 | 0 | animals exhibiting anticonvulsant action (in words) [1]: more than half of the animals; average of the five mice's walking time ([4]; 25 mg/kg): 180 s
2 | CN1C(=O)CCC1c1nc(-c2ccc(F)cc2)no1 (single isomer, unassigned) [Example 32] | 0.5 | 25 | <0 | 3.6 | 180 | 65.3 | antidepressant effect / immobility time (in words) [5]: significantly decreased the immobility time; average rate of deceasing the immobility time per that of the control group ([5]; oral 3 mg/kg): 25.3*; average rate of deceasing the immobility time per that of the control group ([5]; oral 10 mg/kg): 31.6*; average rate of deceasing the immobility time per that of the control group ([5]; oral 30 mg/kg): 58.9*
3 | CC(C)(C(N)=O)c1nc(-c2ccc(Cl)cc2)no1 [Example 2, 2-[3-(4-chlorophenyl)-1,2,4-oxadiazol-5-yl]-2-methylpropanamide] | 0.6 | 50 | <0 | 29 |  | 180 | 
4 | CC(C)(C(N)=O)c1nc(-c2ccc(Br)cc2)no1 [Example 3, 2-[3-(4-bromophenyl)-1,2,4-oxadiazol-5-yl]-2-methylpropanamide] | 0.7 | 100 | <0 | 29 |  | 180 | 
5 | CCC(CC)(C(N)=O)c1nc(-c2ccc(Cl)cc2)no1 [Example 11, 2-[3-(4-chlorophenyl)-1,2,4-oxadiazol-5-yl]-2-ethylbutanamide] |  |  |  | 5.1 |  | 180 | animals exhibiting anticonvulsant action (in words) [1]: more than half of the animals
6 | CC(C)(C(N)=O)c1noc(-c2ccc(Cl)cc2)n1 [Example 13, 2-[5-(4-chlorophenyl)-1,2,4-oxadiazol-3-yl]-2-methylpropanamide] | 0.6 | 50 | <0 | 71 |  | 180 | 
7 | CC(C)(C(N)=O)c1nnc(-c2ccc(Br)cc2)o1 [Example 16, 2-[5-(4-bromophenyl)-1,3,4-oxadiazol-2-yl]-2-methylpropanamide] |  |  |  | >300 |  | 180 | animals exhibiting anticonvulsant action (in words) [1]: more than half of the animals
8 | CC(C)(c1nc(-c2ccc(Br)cc2)no1)S(N)(=O)=O [Example 19, 2-[3-(4-bromophenyl)-1,2,4-oxadiazol-5-yl]propane-2-sulfonamide] |  |  |  | 34 |  | 180 | 
9 | CC(C)(c1noc(-c2ccc(Cl)cc2)n1)S(N)(=O)=O [Example 20, 2-[5-(4-chlorophenyl)-1,2,4-oxadiazol-3-yl]propane-2-sulfonamide] | 0.6 | 100 | 55 | 20 |  | 180 | 
10 | CC(C)(c1noc(-c2ccc(Br)cc2)n1)S(N)(=O)=O [Example 21, 2-[5-(4-bromophenyl)-1,2,4-oxadiazol-3-yl]propane-2-sulfonamide] |  |  |  | 9.6 |  | 180 | 
11 | CC(C)(c1nnc(-c2ccc(F)cc2)o1)S(N)(=O)=O [Example 22, 2-[5-(4-fluorophenyl)-1,3,4-oxadiazol-2-yl]propane-2-sulfonamide] |  |  |  | >300 |  | 180 | 
12 | CC(C)(c1nnc(-c2ccc(Cl)cc2)o1)S(N)(=O)=O [Example 23, 2-[5-(4-chlorophenyl)-1,3,4-oxadiazol-2-yl]propane-2-sulfonamide] |  |  |  | 190 |  | 180 | 
13 | CC(C)(c1nnc(-c2ccc(Br)cc2)o1)S(N)(=O)=O [Example 24, 2-[5-(4-bromophenyl)-1,3,4-oxadiazol-2-yl]propane-2-sulfonamide] |  |  |  | 86 |  | 180 | 
14 | CN1C(=O)CCC1c1nc(-c2ccc(F)cc2F)no1 (centres unmarked) [Example 26, 5-[3-(2,4-difluorophenyl)-1,2,4-oxadiazol-5-yl]-1-methylpyrrolidin-2-one] |  |  |  | >100 | 180 |  | 
15 | CN1C(=O)CCC1c1nc(-c2ccc(F)c(F)c2)no1 (centres unmarked) [Example 27, 5-[3-(3,4-difluorophenyl)-1,2,4-oxadiazol-5-yl]-1-methylpyrrolidin-2-one] |  |  | <0 | 39 | 180 |  | 
16 | CN1C(=O)CCC1(C)c1nc(-c2ccc(F)cc2)no1 (centres unmarked) [Example 28, 5-[3-(4-fluorophenyl)-1,2,4-oxadiazol-5-yl]-1,5-dimethylpyrrolidin-2-one] |  |  | 24 | 9.3 | 180 |  | animals exhibiting anticonvulsant action (in words) [1]: more than half of the animals
17 | CN1C(=O)CCC1c1nc(-c2ccc(Cl)cc2)no1 (centres unmarked) [Example 29, 5-[3-(4-chlorophenyl)-1,2,4-oxadiazol-5-yl]-1-methylpyrrolidin-2-one] | 0.7 | 25 | 7 | 1.1 | 146.4 |  | antidepressant effect / immobility time (in words) [5]: significantly decreased the immobility time; average rate of deceasing the immobility time per that of the control group ([5]; oral 3 mg/kg): 12.3; average rate of deceasing the immobility time per that of the control group ([5]; oral 10 mg/kg): 29.4*; average of the five mice's walking time ([4]; 25 mg/kg): 180 s
18 | CN1C(=O)CCC1c1nc(-c2ccc(Br)cc2)no1 (centres unmarked) [Example 30, 5-[3-(4-bromophenyl)-1,2,4-oxadiazol-5-yl]-1-methylpyrrolidin-2-one] |  |  |  |  | 180 |  | animals exhibiting anticonvulsant action (in words) [1]: more than half of the animals
19 | CN1C(=O)CN=C(c2ccccc2)c2cc(Cl)ccc21 [diazepam, reference compound] |  |  | 93 | 0.03 |  |  | potentiating effect on GABA(A) receptors (in words) [3]: has the potentiating effect on GABA(A) receptors; inhibition of the potentiating effect on GABA(A) receptors with flumazenil (in words) ([3]; flumazenil, benzodiazepine antagonist): strongly inhibited; antidepressant effect / immobility time (in words) [5]: did not show antidepressant effect; average rate of deceasing the immobility time per that of the control group ([5]; oral 10 mg/kg): 18.3
